According to the NIST ThermoML archive (doi:10.1016/j.tca.2013.08.031):

Assay: molar heat capacity at constant volume
Settings: Fluid (supercritical or subcritical phases), Vacuum adiabatic calorimetry

CCC(C)O (stereo unspecified) [butan-2-ol]
Settings | molar heat capacity at constant volume [J/K/mol]
538.48 K, Mass density=279.19 kg/m3 | 275.36
538.48 K, Mass density=284.93 kg/m3 | 266.32
538.48 K, Mass density=286.65 kg/m3 | 296.63
538.48 K, Mass density=301.19 kg/m3 | 256.46
538.66 K, Mass density=117 kg/m3 | 318.5
538.66 K, Mass density=284.93 kg/m3 | 265.65
538.66 K, Mass density=286.65 kg/m3 | 296.86
538.66 K, Mass density=301.19 kg/m3 | 250.53
538.84 K, Mass density=117 kg/m3 | 306.2
538.84 K, Mass density=286.65 kg/m3 | 297.08
539.03 K, Mass density=286.65 kg/m3 | 296.34
539.57 K, Mass density=286.65 kg/m3 | 285.07
539.76 K, Mass density=279.19 kg/m3 | 283.52
539.76 K, Mass density=286.65 kg/m3 | 288.78
539.94 K, Mass density=184.89 kg/m3 | 261.35
539.94 K, Mass density=276.45 kg/m3 | 295.89
539.94 K, Mass density=279.19 kg/m3 | 284.48
539.94 K, Mass density=286.65 kg/m3 | 282.33
540.12 K, Mass density=184.89 kg/m3 | 273.06
540.12 K, Mass density=276.45 kg/m3 | 293.89
540.12 K, Mass density=279.19 kg/m3 | 283.74
540.12 K, Mass density=286.65 kg/m3 | 282.03
540.12 K, Mass density=403.55 kg/m3 | 223.85
540.3 K, Mass density=184.89 kg/m3 | 272.25
540.3 K, Mass density=276.45 kg/m3 | 297.6
540.3 K, Mass density=286.65 kg/m3 | 280.4
540.3 K, Mass density=403.55 kg/m3 | 225.33
540.48 K, Mass density=184.89 kg/m3 | 275.73
540.48 K, Mass density=276.45 kg/m3 | 293.15
540.48 K, Mass density=403.55 kg/m3 | 226.81
540.67 K, Mass density=184.89 kg/m3 | 280.18
540.67 K, Mass density=279.19 kg/m3 | 274.92
540.67 K, Mass density=403.55 kg/m3 | 223.85
540.85 K, Mass density=184.89 kg/m3 | 275.21
540.85 K, Mass density=279.19 kg/m3 | 281.29
540.85 K, Mass density=403.55 kg/m3 | 223.11
541.03 K, Mass density=279.19 kg/m3 | 276.47
541.03 K, Mass density=403.55 kg/m3 | 220.88
541.21 K, Mass density=279.19 kg/m3 | 278.4
541.4 K, Mass density=279.19 kg/m3 | 276.92
542.67 K, Mass density=301.19 kg/m3 | 240.15
542.85 K, Mass density=301.19 kg/m3 | 240.9
543.03 K, Mass density=301.19 kg/m3 | 240.15
547.21 K, Mass density=286.65 kg/m3 | 273.21
547.39 K, Mass density=286.65 kg/m3 | 272.69
547.57 K, Mass density=284.93 kg/m3 | 247.34
547.57 K, Mass density=286.65 kg/m3 | 276.33
547.75 K, Mass density=284.93 kg/m3 | 250.31
547.75 K, Mass density=286.65 kg/m3 | 276.62
547.93 K, Mass density=284.93 kg/m3 | 248.31
547.93 K, Mass density=286.65 kg/m3 | 276.1
548.11 K, Mass density=284.93 kg/m3 | 247.79
548.11 K, Mass density=286.65 kg/m3 | 276.33
548.11 K, Mass density=347.06 kg/m3 | 235.71
548.29 K, Mass density=284.93 kg/m3 | 248.68
548.29 K, Mass density=286.65 kg/m3 | 278.03
548.29 K, Mass density=347.06 kg/m3 | 236.45
548.47 K, Mass density=284.93 kg/m3 | 248.31
548.47 K, Mass density=286.65 kg/m3 | 278.55
548.47 K, Mass density=347.06 kg/m3 | 235.71
548.65 K, Mass density=286.65 kg/m3 | 278.03
548.65 K, Mass density=347.06 kg/m3 | 234.22
550.28 K, Mass density=284.93 kg/m3 | 236.74
550.46 K, Mass density=284.93 kg/m3 | 238.08
550.46 K, Mass density=403.55 kg/m3 | 218.66
550.64 K, Mass density=403.55 kg/m3 | 217.92
550.82 K, Mass density=284.93 kg/m3 | 236.52
550.82 K, Mass density=403.55 kg/m3 | 220.88
551 K, Mass density=284.93 kg/m3 | 236.3
551 K, Mass density=403.55 kg/m3 | 220.88
551.18 K, Mass density=403.55 kg/m3 | 220.14
551.36 K, Mass density=403.55 kg/m3 | 220.88
557.3 K, Mass density=286.65 kg/m3 | 252.16
557.3 K, Mass density=347.06 kg/m3 | 220.14
557.48 K, Mass density=286.65 kg/m3 | 253.13
557.48 K, Mass density=347.06 kg/m3 | 220.88
557.66 K, Mass density=286.65 kg/m3 | 251.94
557.66 K, Mass density=347.06 kg/m3 | 217.92
557.84 K, Mass density=286.65 kg/m3 | 252.16
557.84 K, Mass density=347.06 kg/m3 | 220.14
558.02 K, Mass density=286.65 kg/m3 | 253.64
558.2 K, Mass density=284.93 kg/m3 | 236.45
558.2 K, Mass density=286.65 kg/m3 | 258.98
558.38 K, Mass density=284.93 kg/m3 | 243.27
558.38 K, Mass density=286.65 kg/m3 | 261.43
558.56 K, Mass density=284.93 kg/m3 | 241.49
558.56 K, Mass density=286.65 kg/m3 | 257.05
558.74 K, Mass density=284.93 kg/m3 | 241.71
558.74 K, Mass density=286.65 kg/m3 | 258.02
558.92 K, Mass density=284.93 kg/m3 | 246.38
558.92 K, Mass density=286.65 kg/m3 | 259.28
559.09 K, Mass density=286.65 kg/m3 | 264.39
559.27 K, Mass density=286.65 kg/m3 | 254.83
559.45 K, Mass density=286.65 kg/m3 | 252.68
559.63 K, Mass density=286.65 kg/m3 | 264.39
560.64 K, Mass density=284.93 kg/m3 | 246.75
560.89 K, Mass density=286.65 kg/m3 | 262.17
561.24 K, Mass density=286.65 kg/m3 | 254.83
561.42 K, Mass density=286.65 kg/m3 | 257.28
561.6 K, Mass density=286.65 kg/m3 | 257.79
561.78 K, Mass density=286.65 kg/m3 | 256.83
561.96 K, Mass density=286.65 kg/m3 | 257.57
562.14 K, Mass density=286.65 kg/m3 | 257.05
562.32 K, Mass density=286.65 kg/m3 | 258.98
562.49 K, Mass density=286.65 kg/m3 | 254.61
562.67 K, Mass density=286.65 kg/m3 | 256.61
